Measurements from ChEMBL document CHEMBL5236556, “Development of Cdc2-like Kinase 2 Inhibitors: Achievements and Future Directions” (J Med Chem, 2021).
The source made the active and inactive calls. The calls are words filed in the database; no cut-off is given here.

How the values were obtained:
[1] = molecular target: T1, Dual specificity protein kinase CLK1 (Homo sapiens, UniProt P49759)
[2] = molecular target: T2, Dual specificity protein kinase CLK2 (Homo sapiens, UniProt P49760)
Target sequence in this assay (P49760 whole entry): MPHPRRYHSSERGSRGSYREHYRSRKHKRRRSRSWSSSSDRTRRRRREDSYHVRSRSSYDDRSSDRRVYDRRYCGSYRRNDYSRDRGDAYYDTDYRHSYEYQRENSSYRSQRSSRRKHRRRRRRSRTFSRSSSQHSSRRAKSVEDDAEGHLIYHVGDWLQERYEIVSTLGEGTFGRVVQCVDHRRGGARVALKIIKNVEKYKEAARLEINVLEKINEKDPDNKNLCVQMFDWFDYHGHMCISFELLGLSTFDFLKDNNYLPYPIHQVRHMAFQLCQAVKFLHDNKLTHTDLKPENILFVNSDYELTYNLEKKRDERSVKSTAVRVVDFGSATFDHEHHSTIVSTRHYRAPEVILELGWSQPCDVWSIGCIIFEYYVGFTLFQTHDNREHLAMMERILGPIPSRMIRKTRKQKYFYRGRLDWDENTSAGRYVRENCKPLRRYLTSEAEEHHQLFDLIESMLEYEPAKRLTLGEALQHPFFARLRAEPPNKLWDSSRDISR

[3] = molecular target: T3, Dual specificity protein kinase CLK3 (Homo sapiens, UniProt P49761)
Target sequence in this assay (P49761 whole entry): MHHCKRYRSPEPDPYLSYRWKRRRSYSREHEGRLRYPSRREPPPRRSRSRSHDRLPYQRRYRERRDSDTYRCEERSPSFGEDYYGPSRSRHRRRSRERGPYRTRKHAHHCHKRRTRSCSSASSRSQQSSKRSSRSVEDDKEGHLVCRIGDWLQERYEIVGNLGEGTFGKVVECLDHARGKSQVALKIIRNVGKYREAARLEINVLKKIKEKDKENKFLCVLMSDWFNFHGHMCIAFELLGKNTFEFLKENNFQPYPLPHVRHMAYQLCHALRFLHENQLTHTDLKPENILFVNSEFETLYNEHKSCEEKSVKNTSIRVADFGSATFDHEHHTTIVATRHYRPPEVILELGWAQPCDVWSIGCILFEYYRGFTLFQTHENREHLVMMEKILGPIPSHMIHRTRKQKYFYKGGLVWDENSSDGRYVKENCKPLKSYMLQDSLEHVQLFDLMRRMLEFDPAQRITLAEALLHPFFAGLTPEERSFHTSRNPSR

[4] = molecular target: T4, Dual specificity protein kinase CLK4 (Homo sapiens, UniProt Q9HAZ1)
[5] = molecular target: T2, Dual specificity protein kinase CLK2; assay: Inhibition of CLK2 (unknown origin)
Target sequence in this assay (P49760 whole entry): as the sequence (P49760 whole entry) above

[6] = molecular target: T1, Dual specificity protein kinase CLK1; assay: Inhibition of CLK1 (unknown origin)
[7] = molecular target: T2, Dual specificity protein kinase CLK2; assay: Inhibition of human CLK2 measured by DSF assay
Target sequence in this assay (P49760 whole entry, looked up): as the sequence (P49760 whole entry) above

MDA-MB-231 = assay: Cytotoxicity against MDA-MB-231 cells (unknown origin) assessed as supressed cell growth; assay type: functional, cell-based; conditions: Homo sapiens
T-24 = assay: Cytotoxicity against T24 cells (unknown origin) assessed as supressed cell growth; assay type: functional, cell-based; conditions: Homo sapiens
MCF7 = assay: Cytotoxicity against human MCF7 cells; assay type: functional, cell-based
Homo sapiens [8] = species: Homo sapiens; assay: Inhibition of DYRK kinase (unknown origin) at 100 uM
PC-3 = assay: Cytotoxicity against human PC-3 cells; assay type: functional, cell-based
[9] = Antifibrotic activity in TGF-beta1 induced primary human lung fibroblast; assay type: functional, cell-based
Lung cancer cell line = assay: Cytotoxicity against lung cancer cells (unknown origin); assay type: functional, cell-based; conditions: Homo sapiens
[10] = system: Triple-negative breast cancer cell; assay: Antitumour activity expressed in triple negative breast cells (unknown origin) with dysfunctional G1-S checkpoint; assay type: functional, cell-based; conditions: Homo sapiens
[11] = molecular target: T3, Dual specificity protein kinase CLK3; assay: Inhibition of human CLK3 assessed as residual activity at 3 uM
Target sequence in this assay (P49761 whole entry, looked up): as the sequence (P49761 whole entry) above

Homo sapiens [12] = species: Homo sapiens; assay: Selectivity ratio of IC50 for inhibition of human CLK3 to IC50 for inhibition of human CLK2 by biochemical caliper assay
[13] = molecular target: T2, Dual specificity protein kinase CLK2; assay: Inhibition of human CLK2 at 1 uM
Target sequence in this assay (P49760 whole entry, looked up): as the sequence (P49760 whole entry) above

[14] = molecular target: T3, Dual specificity protein kinase CLK3; assay: Inhibition of human CLK3 administered orally
Target sequence in this assay (P49761 whole entry): as the sequence (P49761 whole entry) above

[15] = molecular target: T1, Dual specificity protein kinase CLK1; assay: Inhibition of human CLK1 administered orally
[16] = molecular target: T4, Dual specificity protein kinase CLK4; assay: Inhibition of human CLK4 administered orally
[17] = molecular target: T2, Dual specificity protein kinase CLK2; assay: Inhibition of human CLK2 administered orally
Target sequence in this assay (P49760 whole entry): as the sequence (P49760 whole entry) above

Cancer cell lines = assay: Antiproliferative activity against cancer cells (unknown origin); assay type: functional, cell-based; conditions: Homo sapiens
[18] = molecular target: SRSF protein kinase 1 (Homo sapiens) (UniProt Q96SB4); assay: Inhibition of SRSF phosphorylation in human HeLa cells; assay type: cell-based
Mus musculus = species: Mus musculus; assay: Induction of autophagy in APAP induced liver injury mouse model; assay type: functional, organism-based

T4 sequence (Q9HAZ1 whole entry): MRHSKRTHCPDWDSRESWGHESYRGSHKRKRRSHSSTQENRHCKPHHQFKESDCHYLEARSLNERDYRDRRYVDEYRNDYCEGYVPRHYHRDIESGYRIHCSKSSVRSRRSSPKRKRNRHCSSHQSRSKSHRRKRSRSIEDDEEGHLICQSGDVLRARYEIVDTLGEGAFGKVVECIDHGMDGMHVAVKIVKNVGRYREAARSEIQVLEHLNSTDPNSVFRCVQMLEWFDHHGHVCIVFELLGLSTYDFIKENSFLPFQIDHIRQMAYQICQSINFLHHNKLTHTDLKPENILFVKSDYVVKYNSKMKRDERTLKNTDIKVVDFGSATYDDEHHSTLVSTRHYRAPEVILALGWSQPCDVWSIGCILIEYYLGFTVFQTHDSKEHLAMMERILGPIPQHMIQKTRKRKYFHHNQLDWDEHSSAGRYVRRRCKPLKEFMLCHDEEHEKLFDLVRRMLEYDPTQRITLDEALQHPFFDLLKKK
T1 sequence (P49759 whole entry): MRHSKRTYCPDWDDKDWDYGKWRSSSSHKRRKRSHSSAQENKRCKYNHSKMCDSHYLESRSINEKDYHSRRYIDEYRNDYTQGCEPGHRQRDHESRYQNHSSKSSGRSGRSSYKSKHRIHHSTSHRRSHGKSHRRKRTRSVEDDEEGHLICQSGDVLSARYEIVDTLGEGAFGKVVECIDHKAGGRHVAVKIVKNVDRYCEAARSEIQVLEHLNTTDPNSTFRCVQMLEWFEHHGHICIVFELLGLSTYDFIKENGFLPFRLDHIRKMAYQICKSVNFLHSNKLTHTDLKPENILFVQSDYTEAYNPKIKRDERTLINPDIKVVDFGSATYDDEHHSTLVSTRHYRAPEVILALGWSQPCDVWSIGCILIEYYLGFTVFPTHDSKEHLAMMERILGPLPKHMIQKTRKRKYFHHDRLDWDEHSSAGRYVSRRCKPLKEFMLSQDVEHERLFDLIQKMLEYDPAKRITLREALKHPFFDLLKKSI
Chain of SRSF protein kinase 1 (Homo sapiens) (Q96SB4 whole entry): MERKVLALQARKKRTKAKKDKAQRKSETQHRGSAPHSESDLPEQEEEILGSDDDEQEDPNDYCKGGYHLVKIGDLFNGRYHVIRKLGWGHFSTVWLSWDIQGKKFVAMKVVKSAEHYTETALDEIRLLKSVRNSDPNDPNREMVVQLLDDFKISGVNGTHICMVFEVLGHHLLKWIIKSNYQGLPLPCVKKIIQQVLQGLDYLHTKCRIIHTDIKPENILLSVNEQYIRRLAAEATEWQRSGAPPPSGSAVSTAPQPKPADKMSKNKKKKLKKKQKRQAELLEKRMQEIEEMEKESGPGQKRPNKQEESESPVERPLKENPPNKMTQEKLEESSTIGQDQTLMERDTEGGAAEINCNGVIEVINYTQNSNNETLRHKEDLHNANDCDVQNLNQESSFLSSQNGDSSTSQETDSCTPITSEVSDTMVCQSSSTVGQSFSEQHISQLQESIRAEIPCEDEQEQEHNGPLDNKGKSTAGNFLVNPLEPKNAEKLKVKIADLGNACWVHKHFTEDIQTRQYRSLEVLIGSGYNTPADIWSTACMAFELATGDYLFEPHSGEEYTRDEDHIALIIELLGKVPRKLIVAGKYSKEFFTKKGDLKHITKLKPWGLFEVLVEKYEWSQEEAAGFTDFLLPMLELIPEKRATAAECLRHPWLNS

Compound: CC(C)(C)c1ccc(C(=O)Nc2cn3cc(-c4ccncc4)ccc3n2)cn1
- IC50 [1]: 1.1 nM
- IC50 [2]: 2.4 nM

Compound: Cc1nc2ccc3sc(NC(=O)c4ccc5scnc5c4)nc3c2s1
- IC50 [1]: 51 nM
- IC50 [2]: 68 nM
- IC50 [3]: 346 nM

Compound: c1csc(CNc2ncnc3ccc(-c4ccc5c(c4)OCO5)cc23)c1
- IC50 [4]: 50 nM
- IC50 [1]: 37 nM
- IC50 [2]: 680 nM
- IC50 [3]: 470 nM

Compound: COc1cccc2c1[nH]c1c3ccncc3cc(C#N)c21
- IC50 [5]: 41 nM
- IC50 [6]: 44 nM

Compound: Cc1ccc(CNc2ncnc3ccc(-c4ccc(CO)o4)cc23)o1
- IC50 [3]: > 10000 nM

Compound: CCOC(=O)c1c(/C(C#N)=C\N)c2ccc(Cl)c(Cl)c2n1C
- inhibition [7]: Active

Compound: COc1cc(/C=C2\N=C(N)NC2=O)ccc1O [POLYANDROCARPAMINE A]
- IC50 [4]: 470 nM
- IC50 [1]: 470 nM
- IC50 [2]: 640 nM
- IC50 [3]: > 2000 nM

Compound: N=C1NC(=O)/C(=C/c2ccc3c(c2)CCO3)S1
- IC50 [2]: 6800 nM

Compound: COc1ccc2sc(C(=O)N(C)Cc3cccc(F)c3)cc2c1
- Activity (MDA-MB-231): Active
- IC50 [4]: 2.3 nM
- IC50 [1]: 7 nM
- IC50 [2]: 19.1 nM
- Activity (T-24): Active

Compound: O=[N+]([O-])c1ccccc1-n1cc(COc2cccc3cnc(Nc4cccc(Cl)c4)nc23)nn1
- IC50 (MCF7): 4000 nM
- IC50 [4]: 20 nM
- IC50 [1]: 11 nM
- inhibition (Homo sapiens [8]): inactive
- IC50 [2]: 27 nM
- IC50 (PC-3): 7000 nM
- IC50 [3]: > 1000 nM

Compound: O=C(Nc1cccnc1)c1c[nH]nc1-c1nc2c(-c3cccc(F)c3)cccc2[nH]1
- IC50 [2]: 11 nM
- EC50 [9]: 18 nM

Compound: CC(C)(CO)c1ccc(C(=O)Nc2cn3cc(-c4cn[nH]c4)ccc3n2)cn1
- IC50 [1]: 1.1 nM
- IC50 [2]: 2.1 nM

Compound: CC(C)c1cnn2c(NCc3ccc(-c4ccccn4)cc3)nc(N[C@H]3CC[C@H](N)CC3)nc12
- IC50 [4]: 89 nM
- IC50 [1]: 100 nM
- IC50 [2]: 130 nM
- IC50 [3]: 2.9 nM

Compound: COc1cc(Nc2nccc(-c3cnn4nc(OC)ccc34)n2)cc(C(F)(F)F)c1
- IC50 [1]: 13 nM

Compound: COc1ccc(NC(=O)c2n[nH]c3ccc(-c4cncc(CN5CCCCC5)c4)cc23)cc1
- IC50 [2]: 0.822 nM

Compound: CNC(=O)c1ccc(Nc2nc(OC3CCCC3)c3c(-c4ccc5nc(C)oc5c4)c[nH]c3n2)c(OC)c1
- Activity (Lung cancer cell line): Active
- Activity [10]: Active
- Activity [11]: 60%

Compound: O=C1NC(Nc2ccccc2)=N/C1=C\c1ccc2c(c1)OCO2
- IC50 [4]: 64 nM
- IC50 [3]: > 10000 nM

Compound: Cc1[nH]nc2ccc(-c3cncc(OC[C@@H](N)CC(C)C)c3)cc12
- Ratio IC50 (Homo sapiens [12]): 225

Compound: COc1ccc2sc(C(=O)N(C)OC)cc2c1
- inhibition [13]: 73%

Compound: CNc1nc(NCc2ncccn2)c2c(-c3ccc4ncccc4c3)c[nH]c2n1
- IC50 [14]: 6.5 nM
- IC50 [15]: 4.8 nM
- IC50 [16]: 0.61 nM
- IC50 [17]: 0.096 nM

Compound: COc1c(O)ccc2c(=O)c3c(O)cc4c(c3[nH]c12)C=CC(C)(C)O4
- IC50 [1]: 210 nM
- IC50 [3]: > 2000 nM

Compound: O=C1NCc2c(Cl)cc3c(-c4ccccc4)c[nH]c3c21
- IC50 [1]: 380 nM
- IC50 [2]: 33 nM
- IC50 [3]: 300 nM

Compound: O=C1NCc2ccc3c(-c4cccc(Cl)c4)c[nH]c3c21
- IC50 [1]: 88 nM
- IC50 [2]: 510 nM
- Activity (Cancer cell lines): Active
- IC50 [3]: 28 nM

Compound: CN1CCN(C(=O)C(C)(C)c2ccc(C(=O)Nc3cn4cc(-c5ccncc5)ccc4n3)cc2)CC1
- inhibition [18]: Dose-Dependent Effect

Compound: CC(C)n1cnc2c(Nc3cc(N)cc(Cl)c3)nc(NC3CCCCC3N)nc21 (stereo not drawn)
- IC50 [4]: 25 nM
- IC50 [1]: 17 nM
- IC50 [2]: 6 nM
- IC50 [3]: 1000 nM

Compound: CN1C(=O)/C(=C/c2ccc3c(c2)OCO3)N=C1N [LEUCETTAMINE B]
- IC50 [2]: 720 nM

Compound: O=C(O)c1nc2ccccc2c2[nH]c3c(Cl)cccc3c12
- IC50 [4]: 45 nM
- IC50 [1]: 130 nM
- IC50 [3]: > 100 nM

Compound: c1cc(-c2ccc3[nH]ncc3c2)ccn1
- inhibition [13]: 85%
- IC50 [1]: 113 nM

Compound: C[C@@H](c1ccc(F)cc1)n1nnc2cnc3ccc(-c4ccc5ocnc5c4)cc3c21
- Activity (Mus musculus): Active
- IC50 [3]: 8 nM
